Results reported in patent US10070645B2, “N-cycloalkyl-N-{[2-(1-substitutedcycloalkyl)phenyl]methylene}-(thio)carboxamide derivatives” (BAYER CROPSCIENCE AKTIENGESELLSCHAFT, priority 2013, dated 2018).

Experiments:
Uromyces appendiculatus = assay: In vivo preventive test on Uromyces appendiculatus (bean rust); conditions: for protection: dose of 100 and 10 ppm of active ingredient
Description: In Vivo Preventive Test on Uromyces appendiculatus (Bean Rust)
Solvent: 5% by volume of Dimethyl sulfoxide • 10% by volume of Acetone
Emulsifier: 1 μL of Tween® 80 per mg of active ingredient
The active ingredients are made soluble and homogenized in a mixture of Dimethyl sulfoxide/Acetone/Tween® 80 and then diluted in water to the desired concentration.
The young plants of bean are treated by spraying the active ingredient prepared as described above. Control plants are treated only with an aqueous solution of Acetone/Dimethyl sulfoxide/Tween® 80.
After 24 hours, the plants are contaminated by spraying the leaves with an aqueous suspension of Uromyces appendiculatus spores. The contaminated bean plants are incubated for 24 hours at 20° C. and at 100% relative humidity and then for 10 days at 20° C. and at 70-80% relative humidity.
The test is evaluated 11 days after the inoculation. 0% means an efficacy which corresponds to that of the control plants while an efficacy of 100% means that no disease is observed.

Phakopsora pachyrhizi = assay: In vivo preventive test on Phakopsora pachyrhizi (soybean rust); conditions: for protection: dose of 10 ppm of active ingredient
Description: In Vivo Preventive Test on Phakopsora pachyrhizi (Soybean Rust)
Solvent: 24.5 parts by weight of acetone • 24.5 parts by weight of N,N-dimethylacetamide
Emulsifier: 1 part by weight of alkylaryl polyglycol ether
To produce a suitable preparation of active compound, 1 part by weight of active compound is mixed with the stated amounts of solvent and emulsifier, and the concentrate is diluted with water to the desired concentration.
To test for preventive activity, young plants are sprayed with the preparation of active compound at the stated rate of application. After the spray coating has dried on, the plants are inoculated with an aqueous spore suspension of the causal agent of soybean rust (Phakopsora pachyrhizi) and stay for 24 h without light in an incubation cabinet at approximately 24° C. and a relative atmospheric humidity of 95%.
The plants remain in the incubation cabinet at approximately 24° C. and a relative atmospheric humidity of approximately 80% and a day/night interval of 12 h.
The test is evaluated 7 days after the inoculation. 0% means an efficacy which corresponds to that of the untreated control, while an efficacy of 100% means that no disease is observed.

[1] = log P by HPLC on a reversed-phase column (C 18), EEC Directive 79/831 Annex V.A8; format: physicochemical; conditions: for logP: 40° C., linear gradient 10% to 90% acetonitrile
How it was run: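 Reversed-phase C18 HPLC at 40° C, 0.1% aqueous formic acid/acetonitrile gradient from 10% to 90% acetonitrile. log P derived from retention times by linear interpolation between unbranched alkan-2-ones (3–16 carbons) of known log P.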

[2] = HPLC, reversed-phase column (C 18), 0.1% aqueous formic acid and acetonitrile
[3] = reversed-phase HPLC column (C 18), Table 4 (aldehydes of formula IV), HPLC C 18, 40° C., 0.1% aqueous formic acid and acetonitrile
[4] = reversed-phase HPLC column (C 18), Table 3 (amines of formula II), HPLC C 18, 40° C., 0.1% aqueous formic acid and acetonitrile
[5] = HPLC on reversed-phase column (C 18), 0.1% aqueous formic acid and acetonitrile

Cn1nc(C(F)F)c(C(=O)N(Cc2c(C3CC3)ccc(F)c2F)C2CC2)c1F [54 from WO-2010/130767, N-cyclopropyl-N-(6-cyclopropyl-2,3-difluorobenzyl)-3-(difluoromethyl)-5-fluoro-1-methyl-1H-pyrazole-4-carboxamide, reference compound]
Efficacy (Uromyces appendiculatus; Table B1, dose 10 ppm): 29%
Efficacy (Uromyces appendiculatus; Table B1, dose 100 ppm): 100%
protection (Uromyces appendiculatus): total to poor (less than 30%) protection

Cn1nc(C(F)F)c(C(=O)N(Cc2cc(Cl)ccc2C2CC2)C2CC2)c1F [41 from WO-2010/130767, N-(5-chloro-2-cyclopropylbenzyl)-N-cyclopropyl-3-(difluoromethyl)-5-fluoro-1-methyl-1H-pyrazole-4-carboxamide, reference compound]
Efficacy (Phakopsora pachyrhizi; Table C2, dose 10 ppm): 0%
protection (Phakopsora pachyrhizi): no protection

Cn1nc(C(F)F)c(C(=O)N(Cc2cc(F)ccc2C2(C(F)F)CC2)C2CC2)c1F [I.151, N-cyclopropyl-3-(difluoromethyl)-N-{2-[1-(difluoromethyl)-cyclopropyl]-5-fluorobenzyl}-5-fluoro-1-methyl-1H-pyrazole-4-carboxamide]
chromatographic logP ([1]; reversed-phase HPLC column (C 18), preparation examples): 3.39
Efficacy (Uromyces appendiculatus; Table B1, dose 10 ppm): 100%
Efficacy (Uromyces appendiculatus; Table B1, dose 100 ppm): 100%
protection (Uromyces appendiculatus): total protection

Cc1ccc(C2(C)CC2)c(CN(C(=O)c2c(C(F)F)nn(C)c2F)C2CC2)c1 [I.071]
Efficacy (Phakopsora pachyrhizi; Table C1, dose 10 ppm): 99%
protection (Phakopsora pachyrhizi): at least 90%
logP [1, 2]: 4.19

Cc1ccc(C(F)(F)F)c(CN(C(=O)c2c(C(F)F)nn(C)c2F)C2CC2)c1 [12 from WO-2010/130767, N-cyclopropyl-3-(difluoromethyl)-5-fluoro-1-methyl-N-[5-methyl-2-(trifluoromethyl)benzyl]-1H-pyrazole-4-carboxamide, reference compound]
Efficacy (Phakopsora pachyrhizi; Table C1, dose 10 ppm): 0%
protection (Phakopsora pachyrhizi): no protection

Cn1nc(C(F)F)c(C(=O)N(Cc2cc(F)ccc2C2CC2)C2CC2)c1F [123 from WO-2010/130767, N-cyclopropyl-N-(2-cyclopropyl-5-fluorobenzyl)-3-(difluoromethyl)-5-fluoro-1-methyl-1H-pyrazole-4-carboxamide, reference compound]
Efficacy (Phakopsora pachyrhizi; Table C3, dose 10 ppm): 0%
protection (Phakopsora pachyrhizi): no protection

CC1(c2cc(F)ccc2C=O)CC1 [IV.03, 4-fluoro-2-(1-methylcyclopropyl)benzaldehyde]
chromatographic logP [1, 3]: 3.15

Cn1nc(C(F)F)c(C(=O)N(Cc2ccc(-c3ccncc3)cc2C2(C)CC2)C2CC2)c1F [I.045]
logP [1, 2]: 2.00

COC1(c2ccc(C)cc2CN(C(=O)c2c(C(F)F)nn(C)c2F)C2CC2)CC1 [I.122]
logP [1, 2]: 3.57

Cc1ccc(C2(C)CC2)c(CN(C(=O)c2c(C(F)F)nn(C)c2Cl)C2(C#N)CC2)c1 [I.078]
logP [1, 2]: 3.87

CC1(c2cc(F)c(F)cc2C=O)CC1 [IV.06, 4,5-difluoro-2-(1-methylcyclopropyl)benzaldehyde]
chromatographic logP [1, 3]: 3.44

FC(F)(F)C1(c2ccc(Cl)cc2CNC2CC2)CC1 [II.44, N-{5-chloro-2-[1-(trifluoromethyl)cyclopropyl]benzyl}cyclopropanamine]
chromatographic logP [1, 4]: 1.47

Cn1nc(C(F)F)c(C(=O)N(Cc2cc(F)c(F)cc2C2(C)CC2)C2CC2)c1F [I.048]
logP [1, 2]: 4.01

Cn1nc(C(F)F)c(C(=O)N(Cc2ccc(-c3ccc(F)c(F)c3)cc2C2(C)CC2)C2CC2)c1F [I.036]
logP [1, 2]: 5.03

CCCC1(c2cc(Cl)ccc2C=O)CC1 [IV.19, 4-chloro-2-(1-propylcyclopropyl)benzaldehyde]
chromatographic logP [1, 3]: 4.69

Cc1ccc(C2(C(C)C)CC2)c(CN(C(=O)c2c(C(F)F)nn(C)c2Cl)C2CC2)c1 [I.136]
logP [1, 2]: 5.11

C#CC1(c2ccc(Cl)cc2CNC2CC2)CC1 [II.16, N-[5-chloro-2-(1-ethynylcyclopropyl)benzyl]cyclopropanamine]
chromatographic logP [1, 4]: 1.22

COc1ccc(CN(C(=O)c2c(C(F)F)nn(C)c2F)C2CC2)c(C2(C)CC2)c1 [I.028]
logP [1, 2]: 3.69

Cn1nc(C(F)F)c(C(=O)N(Cc2ccc(-c3ccsc3)cc2C2(C)CC2)C2CC2)c1F [I.040]
logP [1, 2]: 4.61

CCC1(c2cc(Cl)ccc2CN(C(=O)c2c(C(F)F)nn(C)c2F)C2CC2)CC1 [I.102]
logP [1, 2]: 4.67

Cn1nc(C(F)F)c(C(=O)N(Cc2ccccc2C2(C(F)(F)F)CC2)C2CC2)c1F [I.161]
logP [1, 5]: 2.34

Cn1nc(C(F)F)c(C(=O)N(Cc2ccc(Cl)cc2C2(C)CC2)C2CC2)c1Cl [I.019]
logP [1, 2]: 4.54

CCCC1(c2ccc(C)cc2CN(C(=O)c2c(C(F)F)nn(C)c2F)C2CC2)CC1 [I.130]
logP [1, 2]: 5.03

Cc1ccc(C2(C(F)F)CC2)c(CN(C(=O)c2c(C(F)F)nn(C)c2F)C2CC2)c1 [I.153]
logP [1, 2]: 3.64

Cn1nc(C(F)F)c(C(=O)N(Cc2ccc(Cl)cc2C2(C)CC2)C2CC2)c1F [I.018]
logP [1, 2]: 4.43

COC1(c2ccc(C(C)C)cc2CN(C(=O)c2c(C(F)F)nn(C)c2F)C2CC2)CC1 [I.121]
logP [1, 2]: 4.29

Cc1cc(CN(C(=O)c2c(C(F)F)nn(C)c2Cl)C2CC2)c(C2(C)CC2)cc1C [I.052]
logP [1, 2]: 4.53

Cc1ccc(CN(C(=O)c2c(C(F)F)nn(C)c2Cl)C2CC2)c(C2(C)CC2)c1 [I.027]
logP [1, 2]: 4.36

Cn1nc(C(F)F)c(C(=S)N(Cc2ccc(F)cc2C2(C)CC2)C2CC2)c1F [I.023]
logP [1, 2]: 4.56

C#CC1(c2ccc(Cl)cc2CN(C(=O)c2c(C(F)F)nn(C)c2Cl)C2CC2)CC1 [I.091]
logP [1, 2]: 3.89

Cc1ccc(C2(C#C[Si](C)(C)C)CC2)c(CNC2CC2)c1 [II.19, N-(5-methyl-2-{1-[(trimethylsilyl)ethynyl]cyclopropyl}benzyl)cyclopropanamine]
chromatographic logP ([1]; Table 3 (amines of formula II), HPLC C 18, 40° C., 0.1% aqueous formic acid and acetonitrile): 2.05

Cc1ccc(C2(C)CC2)c(CN(C(=O)c2c(C(F)F)nn(C)c2F)C2CC2)c1Cl [I.086]
logP [1, 2]: 4.51

Cn1nc(C(F)F)c(C(=O)N(Cc2cc(Cl)ccc2C2(C)CC2(Cl)Cl)C2CC2)c1F (racemic) [I.168]
logP [1, 5]: 4.39

CC1(c2c(F)cccc2CNC2CC2)CC1 [II.02, N-[3-fluoro-2-(1-methylcyclopropyl)benzyl]cyclopropanamine]
chromatographic logP [1, 4]: 1.36

Cc1ccc(C2(C)CC2(Cl)Cl)c(CN(C(=O)c2c(C(F)F)nn(C)c2Cl)C2CC2)c1Cl (racemic) [I.177]
logP [1, 5]: 4.78

CCC1(c2ccc(Cl)cc2CNC2CC2)CC1 [II.29, N-[5-chloro-2-(1-ethylcyclopropyl)benzyl]cyclopropanamine]
chromatographic logP [1, 4]: 1.66

CC1(c2cc(Cl)ccc2CNC2CC2)CC1 [II.04, N-[4-chloro-2-(1-methylcyclopropyl)benzyl]cyclopropanamine]
chromatographic logP [1, 4]: 1.54

Cc1cc(CN(C(=O)c2c(C(F)F)nn(C)c2F)C2CC2)c(C2(C)CC2)cc1C [I.051]
logP [1, 2]: 4.36

COC(=O)C1(c2ccc(Cl)cc2C=O)CC1 [IV.25, methyl 1-(4-chloro-2-formylphenyl)cyclopropanecarboxylate]
chromatographic logP [1, 3]: 2.68

O=Cc1cc(Cl)ccc1C1(C(F)F)CC1 [IV.20, 5-chloro-2-[1-(difluoromethyl)cyclopropyl]benzaldehyde]
chromatographic logP [1, 3]: 3.04

Cn1nc(C(F)F)c(C(=O)N(Cc2ccc(F)cc2C2(C(F)F)CC2)C2CC2)c1F [I.144]
logP [1, 2]: 3.41

Cc1ccc(C2(C)CC2)c(CN(C(=O)c2c(C(F)F)nn(C)c2F)C2(C)CC2)c1 [I.075]
logP [1, 2]: 4.51

Cc1ccc(C2(C#N)CC2)c(CNC2CC2)c1 [II.21, 1-{2-[(cyclopropylamino)methyl]-4-methylphenyl}cyclopropanecarbonitrile]
chromatographic logP [1, 4]: 1.19

Cn1nc(C(F)F)c(C(=O)N(Cc2cccc(F)c2C2(C)CC2)C2CC2)c1Cl [I.009]
logP [1, 2]: 3.99

N#CC1(c2ccc(Cl)cc2C=O)CC1 [IV.15, 1-(4-chloro-2-formylphenyl)cyclopropanecarbonitrile]
chromatographic logP [1, 3]: 2.35

Cc1ccc(C2(CC(C)C)CC2)c(CNC2CC2)c1 [II.43, N-[2-(1-isobutylcyclopropyl)-5-methylbenzyl]cyclopropanamine]
chromatographic logP [1, 4]: 2.15

C=C(C)c1ccc(C2(OC)CC2)c(CN(C(=O)c2c(C(F)F)nn(C)c2F)C2CC2)c1 [I.127]
logP [1, 2]: 4.12
